Some test systems named below: NCI-H23 lung; SF-268 CNS; RXF 393 renal; NCI-H460 lung; LOX IMVI melanoma; NCI-H226 lung; SK-MEL-5 melanoma; HCT-15 colon; HOP-92 NSCLC.
Common to all, as to assay: DTP human tumour cell line panel, 48 h

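Tested at 5 concentrations; 48 h exposure; 96-well plates; endpoints linearly interpolated, else capped at highest concentration. GI50 marks 50% less growth. At the TGI there is no net growth.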

As to `COc1cc([N+](=O)[O-])c(S(=O)(=O)O)cc1-n1nc(-c2ccccc2)n[n+]1-c1cc(S(=O)(=O)[O-])c([N+](=O)[O-])cc1OC`, the TGI in the test on NCI-H23 lung, with SF-268 CNS, with RXF 393 renal, with NCI-H460 lung, in the test on LOX IMVI melanoma and in the test with NCI-H226 lung was over 100 µM in each case. Further, the TGI in the test on SK-MEL-5 melanoma and in the test on HCT-15 colon was over 100 µM throughout.
Turning to `COc1ccc2c3c([nH]c2c1[N+](=O)[O-])C(C)N(C(=O)/C=C/c1ccccc1)CC3` (stereo unspecified), the TGI – broadly, the concentration at which net growth stops – in the test on NCI-H23 lung was over 100 µM; in the test on SF-268 CNS, 4.75 µM; in the test with RXF 393 renal, 24.1 µM; in the test with NCI-H460 lung, over 100 µM; in the test with LOX IMVI melanoma it was 42.6 µM; in the test on NCI-H226 lung, 41.3 µM. In the test with HCT-15 colon, the TGI is over 100 µM.
As to `CC(=O)N1C(=O)C(=O)c2cc(Cl)ccc21`, the TGI with NCI-H23 lung, in the test with SF-268 CNS, in the test with RXF 393 renal, in the test with NCI-H460 lung, with LOX IMVI melanoma and in the test on NCI-H226 lung was over 100 µM in each case. The TGI with SK-MEL-5 melanoma and in the test on HCT-15 colon was over 100 µM in each case.
Turning to `CC(=O)[CH-]C(=O)c1ccccc1.CC(=O)[CH-]C(=O)c1ccccc1.CC(C)CCCC(C)[C@H]1CCC2[C@@H]3CCC4C[C@@H]([O-])CC[C@]4(C)C3CC[C@@]21C.CC(C)CCCC(C)[C@H]1CCC2[C@@H]3CCC4C[C@@H]([O-])CC[C@]4(C)C3CC[C@@]21C.Cl.[Ti+4]` (stereo partly specified), the GI50 with NCI-H23 lung, with SF-268 CNS, in the test with RXF 393 renal, in the test on NCI-H460 lung, in the test on LOX IMVI melanoma and in the test on NCI-H226 lung was over 25 µM each time. In addition, the GI50 with SK-MEL-5 melanoma and with HCT-15 colon was over 25 µM in each case. Besides, the TGI in the test with NCI-H23 lung, in the test on SF-268 CNS, in the test with RXF 393 renal, with NCI-H460 lung, in the test with LOX IMVI melanoma and in the test with NCI-H226 lung was over 25 µM in each case. In addition, the TGI in the test on SK-MEL-5 melanoma and in the test on HCT-15 colon was over 25 µM each time.
Turning to `C=CCCC12CCCC(=O)C1Sc1ccc3ccccc3c12` (stereo unspecified), the TGI was 55.7 µM in the test with NCI-H23 lung; over 100 µM in the test on SF-268 CNS; 26.2 µM in the test with RXF 393 renal; 26.5 µM in the test with LOX IMVI melanoma; 36.2 µM with NCI-H226 lung; 37.5 µM in the test with HCT-15 colon.
As to `O=C(CN1C(=O)c2ccccc2C1=O)OC1C=CCCC1` (stereo unspecified), the TGI in the test with SF-268 CNS, in the test with RXF 393 renal, with NCI-H460 lung, with NCI-H226 lung, with SK-MEL-5 melanoma and in the test with HCT-15 colon was over 100 µM throughout.
Turning to `COc1ccc2c(CCNS(=O)(=O)c3ccccc3)c(C(C)=O)[nH]c2c1[N+](=O)[O-]`, the TGI in the test on NCI-H23 lung, with SF-268 CNS, in the test on NCI-H460 lung, in the test with LOX IMVI melanoma, in the test with NCI-H226 lung and with HCT-15 colon was over 100 µM each time.
Take `CC[O+]=c1cccc2ssnc1-2`: the total growth inhibition concentration (TGI) with SF-268 CNS, in the test on RXF 393 renal, with NCI-H460 lung, with LOX IMVI melanoma, with NCI-H226 lung and with SK-MEL-5 melanoma was over 100 µM each time. In the test on HCT-15 colon, this molecule came in with a TGI of over 100 µM.
In the case of `CC(=O)C1C(=O)C(=O)N(c2ccc(Cl)cc2C)C1=O` (stereo unspecified), the TGI in the test with HOP-92 NSCLC, in the test on NCI-H23 lung, in the test on SF-268 CNS, in the test on RXF 393 renal, in the test on NCI-H460 lung and with SK-MEL-5 melanoma was over 100 µM throughout. This molecule registered a TGI in the test with HCT-15 colon of over 100 µM.
As to `C/C(=C\c1ccccc1)C(O)S(=O)(=O)O` (stereo unspecified), the TGI with NCI-H23 lung, with SF-268 CNS, with RXF 393 renal, with NCI-H460 lung, with LOX IMVI melanoma and in the test on NCI-H226 lung was over 100 µM each time. Further, the TGI with SK-MEL-5 melanoma and in the test with HCT-15 colon was over 100 µM throughout.
As for `COc1cccc(C(=O)O)c1Cc1cccc2ccccc12`, the TGI with NCI-H23 lung, in the test with SF-268 CNS, with RXF 393 renal, in the test on NCI-H460 lung, with LOX IMVI melanoma and in the test with NCI-H226 lung was over 100 µM throughout. The TGI with SK-MEL-5 melanoma and in the test on HCT-15 colon was over 100 µM in each case.
Take `COC(=O)/C1=C/C2CC(/C=C(/c3ccccc3)C(=O)O1)C2`: the total growth inhibition concentration (TGI) in the test on NCI-H23 lung was 38.4 µM; in the test with RXF 393 renal, 78 µM; in the test with NCI-H460 lung it was over 100 µM; in the test on LOX IMVI melanoma, 40.3 µM; in the test on NCI-H226 lung, 44.7 µM; in the test on SK-MEL-5 melanoma, 47 µM. Moreover, in the test with HCT-15 colon, the TGI stood at 53.1 µM.
For `O=S(O)CCCCSSCCCCS(=O)(O)=S`, the TGI in the test with NCI-H23 lung is over 100 µM; in the test on SF-268 CNS it was over 100 µM; in the test on RXF 393 renal, over 100 µM; in the test with NCI-H460 lung, over 100 µM; with LOX IMVI melanoma, over 100 µM; in the test on SK-MEL-5 melanoma it was 30.8 µM. This molecule yielded a TGI in the test with HCT-15 colon of over 100 µM.

The values are drawn from PubChem BioAssay (NCI).
